{
  "source": "patent US11000065B2",
  "about": "“Aerosol generation and exposure system” (CHARLES R. DREW UNIVERSITY OF MEDICINE AND SCIENCE, priority 2016, dated 2021)",
  "experiment": "Electronic cigarette aerosol exposure experiment on mice: plasma concentrations",
  "details": "9 mice; inhalation of aerosol from one electronic cigarette, 4 seconds per puff, one puff every 20 sec, 10 puffs per episode, one episode every 30 min, 4 episodes in 2 hours",
  "data": [
    {"compound": "CN1CCCC1c1cccnc1", "note": "(stereo not shown) [nicotine]", "values": [
      {"measurement": "Mouse plasma nicotine concentration (mean±SD)", "result": "35.3 ± 20.0", "unit": "ng/mL"}
    ]}
  ]
}
